Laboratory results: patent US9056874B2, “Complement pathway modulators and uses thereof” (NOVARTIS AG, priority 2012, dated 2015)

The compounds below were run against T1, factor B (Homo sapiens, UniProt P00751) (assay: factor B inhibition assay of Biological Example 1). Details: IC50 (nM), assay of Biological Example 1 (Table 1).
Format: biochemical
Design: CVF-Bb complex prepared from purified cobra venom factor (1 μM), recombinant human complement factor B; made in house; host or cells: drosophila cells (factor B); E. coli (factor D used to form the complex)
Target sequence in this assay (P00751 260-764 limits assumed): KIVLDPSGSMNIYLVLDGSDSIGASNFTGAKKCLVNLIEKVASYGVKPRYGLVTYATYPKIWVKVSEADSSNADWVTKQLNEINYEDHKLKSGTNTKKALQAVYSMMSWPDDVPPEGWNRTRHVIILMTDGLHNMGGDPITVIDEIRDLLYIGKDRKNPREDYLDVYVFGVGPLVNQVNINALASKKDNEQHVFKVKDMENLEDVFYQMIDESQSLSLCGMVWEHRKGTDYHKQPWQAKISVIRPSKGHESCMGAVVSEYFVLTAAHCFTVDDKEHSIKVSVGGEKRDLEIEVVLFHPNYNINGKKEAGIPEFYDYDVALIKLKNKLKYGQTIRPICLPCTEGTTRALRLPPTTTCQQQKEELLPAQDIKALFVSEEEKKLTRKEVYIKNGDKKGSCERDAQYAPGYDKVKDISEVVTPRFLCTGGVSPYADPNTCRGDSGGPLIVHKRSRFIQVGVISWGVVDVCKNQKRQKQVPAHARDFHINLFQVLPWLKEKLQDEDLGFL
Target sequence in this assay (Q91132 23-649 partner limits assumed): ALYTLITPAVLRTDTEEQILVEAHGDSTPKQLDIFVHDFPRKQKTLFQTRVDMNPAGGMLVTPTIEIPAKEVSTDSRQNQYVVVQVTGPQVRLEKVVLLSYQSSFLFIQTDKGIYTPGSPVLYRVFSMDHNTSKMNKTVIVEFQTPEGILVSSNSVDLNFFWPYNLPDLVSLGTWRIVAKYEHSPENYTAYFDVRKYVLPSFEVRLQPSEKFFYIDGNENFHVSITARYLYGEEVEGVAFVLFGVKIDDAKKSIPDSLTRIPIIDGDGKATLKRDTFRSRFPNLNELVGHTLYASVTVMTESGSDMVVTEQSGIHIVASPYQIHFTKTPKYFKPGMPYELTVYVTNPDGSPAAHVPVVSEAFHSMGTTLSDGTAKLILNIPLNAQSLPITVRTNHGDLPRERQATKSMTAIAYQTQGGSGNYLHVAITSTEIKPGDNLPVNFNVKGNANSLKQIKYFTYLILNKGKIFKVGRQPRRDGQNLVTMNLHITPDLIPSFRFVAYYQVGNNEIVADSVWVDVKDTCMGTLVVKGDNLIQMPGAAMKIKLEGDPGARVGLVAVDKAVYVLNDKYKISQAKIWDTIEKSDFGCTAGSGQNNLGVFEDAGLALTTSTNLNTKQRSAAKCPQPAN
Target sequence in this assay (Q91132 733-984 partner limits assumed): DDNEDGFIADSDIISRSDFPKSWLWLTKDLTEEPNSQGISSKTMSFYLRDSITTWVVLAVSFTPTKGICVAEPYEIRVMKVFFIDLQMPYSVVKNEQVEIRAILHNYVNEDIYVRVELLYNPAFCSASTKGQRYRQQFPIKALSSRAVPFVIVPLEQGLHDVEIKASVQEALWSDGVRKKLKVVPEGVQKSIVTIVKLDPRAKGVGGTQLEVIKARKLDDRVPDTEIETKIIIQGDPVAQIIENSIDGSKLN
Target sequence in this assay (Q91132 1264-1642 partner limits assumed): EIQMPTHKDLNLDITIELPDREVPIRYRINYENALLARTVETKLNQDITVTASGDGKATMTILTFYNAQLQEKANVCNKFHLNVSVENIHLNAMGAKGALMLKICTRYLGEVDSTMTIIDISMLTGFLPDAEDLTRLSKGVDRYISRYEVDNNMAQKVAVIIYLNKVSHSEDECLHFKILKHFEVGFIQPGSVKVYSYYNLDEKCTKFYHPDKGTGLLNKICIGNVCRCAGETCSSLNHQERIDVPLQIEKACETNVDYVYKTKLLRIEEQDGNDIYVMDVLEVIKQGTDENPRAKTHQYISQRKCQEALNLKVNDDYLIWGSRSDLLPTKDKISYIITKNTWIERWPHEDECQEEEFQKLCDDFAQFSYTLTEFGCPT

In order of falling IC50:
1. CCc1cc(C)c2[nH]ccc2c1C(N)c1nc2cc(C#N)ccc2[nH]1 (single isomer, unassigned; (+)) [96-C b) (+), (+)-2-(amino(5-ethyl-7-methyl-1H-indol-4-yl)methyl)-1H-benzo[d]imidazole-5-carbonitrile]  2210 nM
2. Cc1cc(S(C)(=O)=O)c(C(O)(c2nc3cc(C#N)ccc3[nH]2)C(F)(F)F)c2cc[nH]c12 (single isomer, unassigned; (-)) [14-D b) (−), (−)-2-(2,2,2-trifluoro-1-hydroxy-1-(7-methyl-5-(methylsulfonyl)-1H-indol-4-yl)ethyl)-1H-benzo[d]imidazole-5-carbonitrile]  270 nM
3. C=Cc1cc(C)c2[nH]ccc2c1Cc1nc2cc(C#N)ccc2[nH]1 [Example 63-C]  90 nM
4. COc1cc(C)c2[nH]ccc2c1C(N)(c1nc2cc(C#N)ccc2[nH]1)C(F)(F)F (racemic) [36-E b) (+), (+)-2-(1-amino-2,2,2-trifluoro-1-(5-methoxy-7-methyl-1H-indol-4-yl)ethyl)-1H-benzo[d]imidazole-5-carbonitrile]  50 nM
5. COc1cc(C)c2[nH]ccc2c1C(OC)(c1nc2cc(C#N)ccc2[nH]1)C(F)(F)F (single isomer, unassigned; (+)) [34-B b) (+), (+)-2-(2,2,2-trifluoro-1-methoxy-1-(5-methoxy-7-methyl-1H-indol-4-yl)ethyl)-1H-benzo[d]imidazole-5-carbonitrile]  50 nM
6. Cc1cc(C2CC2)c(C(C)(N)c2nc3cc(C#N)ccc3[nH]2)c2cc[nH]c12 (single isomer, unassigned; (+)) [102-D b) (+), (+)-2-(1-amino-1-(5-cyclopropyl-7-methyl-1H-indol-4-yl)ethyl)-1H-benzo[d]imidazole-5-carbonitrile]  6 nM

The compounds below were run against T1, factor B (assay: assay of Biological Example 2.7). Details: assay of Biological Example 2.7 (Table 2).
Format: binding
Design: made in house; host or cells: drosophila cells
Target sequence in this assay (P00751 26-764): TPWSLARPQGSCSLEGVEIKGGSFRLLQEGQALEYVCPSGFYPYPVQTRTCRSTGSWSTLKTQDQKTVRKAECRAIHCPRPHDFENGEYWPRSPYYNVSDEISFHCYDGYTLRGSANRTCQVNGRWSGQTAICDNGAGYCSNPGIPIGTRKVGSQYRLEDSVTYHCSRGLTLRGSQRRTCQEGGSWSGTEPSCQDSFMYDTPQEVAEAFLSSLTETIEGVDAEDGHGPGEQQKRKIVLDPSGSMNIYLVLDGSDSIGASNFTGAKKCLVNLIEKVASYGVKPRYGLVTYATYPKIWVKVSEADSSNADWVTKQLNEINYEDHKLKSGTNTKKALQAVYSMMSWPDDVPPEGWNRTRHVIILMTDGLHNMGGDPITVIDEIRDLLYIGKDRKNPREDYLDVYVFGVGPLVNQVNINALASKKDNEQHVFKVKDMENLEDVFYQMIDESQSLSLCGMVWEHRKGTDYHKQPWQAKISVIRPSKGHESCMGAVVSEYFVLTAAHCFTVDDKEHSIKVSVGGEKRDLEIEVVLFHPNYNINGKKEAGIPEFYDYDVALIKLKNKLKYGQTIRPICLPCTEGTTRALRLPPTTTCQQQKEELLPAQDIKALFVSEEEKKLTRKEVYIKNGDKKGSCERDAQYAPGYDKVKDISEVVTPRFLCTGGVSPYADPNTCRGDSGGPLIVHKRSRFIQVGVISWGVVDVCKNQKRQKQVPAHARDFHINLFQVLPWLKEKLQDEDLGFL

In order of falling IC50:
1. COc1cc(C)c2[nH]ccc2c1C(c1nc2cc(C#N)ccc2o1)C(C)(C)C(=O)O (racemic) [Example 158, (±)-3-(5-Cyanobenzo[d]oxazol-2-yl)-3-(5-methoxy-7-methyl-1H-indol-4-yl)-2,2-dimethylpropanoic acid]  21000 nM
2. COc1cc(C)c2[nH]ccc2c1C(OCC(C)(C)C(=O)O)(c1nc2cc(C#N)ccc2o1)C(F)(F)F (racemic) [Example 138, (±)-3-(1-(5-cyanobenzo[d]oxazol-2-yl)-2,2,2-trifluoro-1-(5-methoxy-7-methyl-1H-indol-4-yl)ethoxy)-2,2-dimethylpropanoic acid]  1220 nM
3. Cc1cc(C)c2[nH]ccc2c1C(O)c1cc2cc(C#N)ccc2[nH]1 (stereo not drawn) [Example 137-P]  980 nM
4. COc1cc(C)c2[nH]ccc2c1C(C)(OC)c1cc2ccc(C#N)cc2o1 (stereo not drawn) [Example 137-Y]  820 nM
5. COc1cc(C)c2[nH]ccc2c1C1(c2nc3cc(C#N)ccc3[nH]2)CC1C(=O)O (racemic) [Example 142-D, (±)-2-(5-Cyano-1H-benzo[d]imidazol-2-yl)-2-(5-methoxy-7-methyl-1H-indol-4-yl)cyclopropanecarboxylic acid]  790 nM
6. Cc1cc(C)c2[nH]ccc2c1C(O)c1nc2cc(C#N)ccc2s1 (stereo not drawn) [Example 137-R]  790 nM
7. COC(C)(c1nc2cc(C#N)ccc2o1)c1c(C2CC2)cc(C)c2[nH]ccc12 (single isomer, unassigned; (+)) [137-L b) (+), (+)-2-(1-(5-cyclopropyl-7-methyl-1H-indol-4-yl)-1-methoxyethyl)benzo[d]oxazole-5-carbonitrile]  720 nM
8. COc1cc(C)c2[nH]ccc2c1C(C)(OC)c1cc2cc(C#N)ccc2o1 (stereo not drawn) [Example 137-Z]  520 nM
9. COc1cc(C)c2[nH]ccc2c1C(NCC(=O)O)(c1nc2cc(C#N)ccc2[nH]1)C(F)(F)F (racemic) [Example 140-B, (±)-2-((1-(5-cyano-1H-benzo[d]imidazol-2-yl)-2,2,2-trifluoro-1-(5-methoxy-7-methyl-1H-indol-4-yl)ethyl)amino)acetic acid]  340 nM
10. COc1cc(C)c2[nH]ccc2c1C(C)(OC)c1nc2cc(C#N)ccc2o1 (single isomer, unassigned; (-)) [137-K b) (−), (−)-2-(1-methoxy-1-(5-methoxy-7-methyl-1H-indol-4-yl)ethyl)benzo[d]oxazole-5-carbonitrile]  200 nM
11. COc1cc(C)c2[nH]ccc2c1C(CCC(=O)O)c1nc2cc(C#N)ccc2o1 (single isomer, unassigned; (+)) [Example 149-C, (+)-4-(5-cyanobenzo[d]oxazol-2-yl)-4-(5-methoxy-7-methyl-1H-indol-4-yl)butanoic acid]  160 nM
12. COc1cc(C)c2[nH]ccc2c1C(NCCO)(c1nc2cc(C#N)ccc2[nH]1)C(F)(F)F (racemic) [Example 139-C, (±)-2-(2,2,2-Trifluoro-1-((2-hydroxyethyl)amino)-1-(5-methoxy-7-methyl-1H-indol-4-yl)ethyl)-1H-benzo[d]imidazole-5-carbonitrile]  120 nM
13. [2H]C([2H])([2H])OC(C)(c1nc2cc(C#N)ccc2[nH]1)c1c(OC)cc(C)c2[nH]ccc12 (single isomer, unassigned; (+)) [137-I b) (+), (+)-2-(1-(^2H3)methoxy-1-(5-methoxy-7-methyl-1H-indol-4-yl)ethyl)-1H-benzo[d]imidazole-5-carbonitrile]  110 nM
14. COc1cc(C)c2[nH]ccc2c1C(c1nc2cc(C#N)ccc2[nH]1)C(C)CO (single isomer, unassigned; diastereomer b) [Example 147-F, (±)-2-(3-hydroxy-1-(5-methoxy-7-methyl-1H-indol-4-yl)-2-methylpropyl)-1H-benzo[d]imidazole-5-carbonitrile (Diastereomer B)]  100 nM
15. COc1cc(C)c2[nH]ccc2c1C(O)c1nc2cc(C#N)ccc2s1 (stereo not drawn) [Example 137-C]  62 nM
16. COc1cc(C)c2[nH]ccc2c1C(C)(O)c1cc2ccc(C#N)cc2[nH]1 (stereo not drawn) [Example 137-T]  50 nM
17. COc1cc(C)c2[nH]ccc2c1C(CC(=O)O)c1nc2cc(C#N)ccc2[nH]1 (racemic) [Example 145-D, (±)-3-(5-Cyano-1H-benzo[d]imidazol-2-yl)-3-(5-methoxy-7-methyl-1H-indol-4-yl)propanoic acid]  41 nM
18. COc1c(F)c(C)c2[nH]ccc2c1C(C)(N)c1nc2cc(C#N)ccc2[nH]1 (stereo not drawn) [Example 137-G]  29 nM
19. CCc1cc(C)c2[nH]ccc2c1C(C)(N)c1nc2cc(C#N)ccc2o1 (single isomer, unassigned) [137-F b) (tr = 4.9 min), (−) or (+)-2-(1-amino-1-(5-ethyl-7-methyl-1H-indol-4-yl)ethyl)benzo[d]oxazole-5-carbonitrile]  10 nM
20. [2H]C([2H])([2H])OC(C)(c1nc2cc(C#N)ccc2[nH]1)c1c(OC)cc(C)c2[nH]ccc12 (single isomer, unassigned; (-)) [137-I b) (−), (−)-2-(1-(^2H3)methoxy-1-(5-methoxy-7-methyl-1H-indol-4-yl)ethyl)-1H-benzo[d]imidazole-5-carbonitrile]  10 nM
21. COc1cc(C)c2[nH]ccc2c1C(C)(O)c1nc2cc(C#N)ccc2o1 (single isomer, unassigned; (-)) [137-N b) (−), (−)-2-(1-hydroxy-1-(5-methoxy-7-methyl-1H-indol-4-yl)ethyl)benzo[d]oxazole-5-carbonitrile]  6 nM
